Laboratory results from patent EP1409705B1, “A PROCESS FOR THE PRODUCTION OF AN INHIBITOR OF HUMAN PLATELET AGGREGATION AND SOYBEAN LIPOXYGENASE” (Council of Scientific and Industrial Research;an Indian …, priority 2001, dated 2002).

How the values were obtained:
[1] = molecular target: T1, soybean lipoxygenase (Glycine max, UniProt P08170); assay: soybean lipoxygenase inhibition; format: biochemical; conditions: purified inhibitor, red crystals; pH 9; read-out: ic50 activity against soybean lipoxygenase
T1 sequence (P08170 1-839): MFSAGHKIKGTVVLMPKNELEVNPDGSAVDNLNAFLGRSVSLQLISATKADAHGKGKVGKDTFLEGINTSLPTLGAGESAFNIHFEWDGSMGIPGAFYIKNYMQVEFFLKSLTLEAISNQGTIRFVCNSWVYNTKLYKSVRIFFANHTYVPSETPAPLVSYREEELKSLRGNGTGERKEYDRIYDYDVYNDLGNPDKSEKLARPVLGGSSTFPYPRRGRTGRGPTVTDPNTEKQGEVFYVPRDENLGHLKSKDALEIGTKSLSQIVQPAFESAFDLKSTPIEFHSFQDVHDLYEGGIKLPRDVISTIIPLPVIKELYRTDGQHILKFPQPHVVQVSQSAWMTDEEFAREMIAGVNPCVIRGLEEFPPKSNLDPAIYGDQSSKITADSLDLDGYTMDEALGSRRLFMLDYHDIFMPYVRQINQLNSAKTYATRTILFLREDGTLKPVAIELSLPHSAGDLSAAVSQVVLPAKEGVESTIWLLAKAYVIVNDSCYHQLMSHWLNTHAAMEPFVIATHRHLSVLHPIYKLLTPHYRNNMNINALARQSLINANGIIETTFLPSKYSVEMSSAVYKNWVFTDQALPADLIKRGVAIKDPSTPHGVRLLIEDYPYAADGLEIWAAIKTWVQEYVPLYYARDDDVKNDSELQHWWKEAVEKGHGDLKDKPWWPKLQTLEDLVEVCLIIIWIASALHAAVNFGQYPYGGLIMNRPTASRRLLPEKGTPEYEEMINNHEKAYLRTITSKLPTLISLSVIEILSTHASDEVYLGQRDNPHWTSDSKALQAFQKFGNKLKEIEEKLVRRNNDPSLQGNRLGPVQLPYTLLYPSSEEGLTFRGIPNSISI

[2] = solubility in organic solvents; format: physicochemical; conditions: in chloroform, dimethylsulfoxide, acetonitrile
[3] = test system: human platelet aggregation; assay: human platelet aggregation inhibition; format: cell-based; conditions: purified inhibitor, red crystals, read-out: ic50 activity against human platelet aggregation

## CCC(=O)C=CC=CC(C)=CC=CC=Cc1ccccc1 [inhibitor, 8-methyl 13-phenyl trideca 4,6,8,10,12 pentene-3-one]
[1]
  IC50: 95.6 µM
[2]
  Solubility: highly soluble
[3]
  IC50: 234 µM
